Patent US20060040298A1, “Rhesus monkey NURR1 nuclear receptor” (priority 2004, published 2006)

Assays:
Format in all cases: cell-based, Macaca mulatta (rhesus monkey)
[1] = molecular target: T1, GR/NURR1 chimera (rat GR DBD fused to rhNURR1 LBD) (UniProt P06536+P43354); test: GR/NURR1 chimera transactivation of the MMTV-LUC reporter in transfected CHO cells; details: FIG. 6; for NURR1 agonist activity: CHO cells co-transfected with GR/NURR1 chimera and reporter gene expression cassette; for luciferase expression from the MMTV-LUC reporter plasmid: CHO cells, compared to compound F and TOFA
T1 construct: expressed in transfected cells; host or cells: CHO cells, transient transfection of the pSG5 plasmid
T1 sequence (P06536+P43354 fused, change not shown): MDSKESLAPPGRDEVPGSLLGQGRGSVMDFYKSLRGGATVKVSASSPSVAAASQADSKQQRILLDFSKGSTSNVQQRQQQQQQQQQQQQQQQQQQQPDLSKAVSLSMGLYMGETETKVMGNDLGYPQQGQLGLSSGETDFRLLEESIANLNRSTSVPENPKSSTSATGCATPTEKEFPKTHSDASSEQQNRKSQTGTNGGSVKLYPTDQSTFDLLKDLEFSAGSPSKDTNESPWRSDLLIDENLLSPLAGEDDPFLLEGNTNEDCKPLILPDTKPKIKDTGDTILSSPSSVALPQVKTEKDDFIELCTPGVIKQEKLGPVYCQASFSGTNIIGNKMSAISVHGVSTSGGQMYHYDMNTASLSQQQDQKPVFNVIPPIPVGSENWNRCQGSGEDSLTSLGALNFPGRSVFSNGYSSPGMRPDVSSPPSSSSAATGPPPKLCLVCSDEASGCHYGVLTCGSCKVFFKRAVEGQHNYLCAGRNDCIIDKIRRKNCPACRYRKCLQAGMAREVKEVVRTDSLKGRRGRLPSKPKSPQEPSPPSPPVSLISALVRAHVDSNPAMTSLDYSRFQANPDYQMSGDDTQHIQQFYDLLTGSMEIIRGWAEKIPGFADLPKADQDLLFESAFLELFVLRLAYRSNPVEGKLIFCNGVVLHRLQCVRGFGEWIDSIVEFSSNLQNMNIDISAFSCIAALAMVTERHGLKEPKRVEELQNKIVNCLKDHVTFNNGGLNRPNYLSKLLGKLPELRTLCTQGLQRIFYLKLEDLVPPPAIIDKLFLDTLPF
Text: A nucleic acid encoding a chimeric nuclear receptor comprising the rat glucocorticoid receptor (GR) DBD fused to the rhNURR1 LBD was constructed and the nucleic acid inserted downstream of the SV40 promoter in plasmid pSG5. The rat GR DBD consists of about amino acid 1 to about amino acid 505 and the rhNURR1 LBD consists of the amino acid sequence beginning from about amino acid 329 to about amino acid 598 (See FIG. 2). A nucleic acid encoding the rat GR DBD, which consisted of nucleotides 1 to 1583 (and which included the proximal 5′ untranslated sequences), was ligated to the nucleic encoding the rhNURR1 (nucleotides 329 to 1794). At the junction in the fusion protein between amino acid 505 of the rat GR DBD and amino acid 329 of the rhNURR1 LDB there are three extra amino acids, Alanine, Arginine, and Glutamic acid, which are encoded by the oligonucleotide 5′-GCTCGAGAA-3′ (SEQ ID NO:11) which includes an XhoI restriction enyme site.
The chimeric nuclear receptor was constructed by ligating the rat GRDBD encoding nucleotide fragment (nucleotides 1 to 1583) to the rhNURR1 LBD encoding nucleotide fragment (nucleotides 329 to 1794) and then inserting the ligated GRDBD/rhNURR1 LBD nucleotide fragments into the pSG5 plasmid expression vector between the EcoRI and BamHI sites.
A reporter gene expression cassette comprising the MMTV(2xGRE) promoter was constructed as described in Schmidt et al., Mol. Endocrinol. 6(10):1634-41 (1992).
A routine transient transfection assay for identifying agonists of rhNURR1 activity is described. While the transfection uses the FuGENE6 method of Roche Applied Science, Indianapolis, Ind., other transfection methods can be used.
In general, the method consists of plating about 0.8 to 1×10^4 transfected COS-1 or CHO cells per well of 96-well tissue culture plates which are UV and visible light transparent. The media that the cells are plated in is exponential growth medium which consists of phenol red-free DMEM containing 10% fetal bovine serum and 1× penicillin/streptomycin. Incubation conditions are 37° C. and 5% CO2. The transfection is done in batch mode.
For a transfection, the cells are trypsinized and resuspended to about 8×10^4 cells/mL in fresh medium. FuGENE6 is mixed with serum-free medium (for example, OPTIMEM, Invitrogen, Carlsbad, Calif.) at a ratio of 2 to 3. About 0.625 ng of DNA encoding the chimeric receptor of Example 2 and 0.625 ng DNA comprising the MMTV promoter operably linked to the luciferase gene (MMTV-LUC) are added to the FuGENE6 in serum-free medium and the mixture incubated at room temperature for about 20 minutes. The mixture is then added to one mL of the cell suspension and 100 μL aliquots plated to the wells of a 96-well tissue culture plate. Thus, a total ten wells contain cells, each containing about 8,000 cells. About 16 to 24 hours after transfection, for each well, about 1 uL of an analyte in a vehicle such as DMSO is added to the well. At least one well is reserved as a control and receives the vehicle alone. After 24 hours exposure to the analytes, the cells are assayed for luciferase activity. The cells are lysed by a Promega cell culture lysis buffer for approximately 30 min and then the luciferase activity in the extracts is assayed in the 96-well format liminometer (MICROBETA JET 1450, Perkin Elmer, Boston, Mass.). Results are calculated as fold induction of compound treated cells over control treated cells.
The CHO cells were transfected as in Example 3. […]

[2] = molecular target: T2, GR/NURR1 chimera receptor (NURR1 LBD) (UniProt P06536+P43354); test: Relative transactivation of GR/NURR1 chimera receptor versus GR/LXRβ chimeric receptor, MMTV-luciferase reporter; details: test analytes at 0, 1, 10, and 30 μM in DMSO; 48 hours post-transfection; FIG. 8
T2 construct: expressed in transfected cells
T2 sequence (P06536+P43354 fused, change not shown): as above
Description: Relative transactivation of GR/NURR1 chimera receptor in response to a panel of test analytes was determined.
An MMTV-luciferase reporter gene expression cassette was cotransfected with a gene expression cassette comprising DNA encoding either the chimeric receptor GR/NURR1 or a chimeric receptor comprising GR/LXRβ under transfection conditions similar to those in Example 3.
Expression vector GR/LXRβ was prepared in a similar manner to the GR/PPARα chimeric receptor in Example 5. […]
The next day, the transfected cells were washed and then refed with the appropriate medium containing 5% activated charcoal-stripped serum. […] The results are shown in FIG. 8 and are expressed as a relative activity in which the activity at each concentration that was obtained with cells transfected with the GR/NURR1 was divided by the corresponding activity that was obtained from cells cotransfected with the GR/LXRβ. […]

[3] = molecular target: T2, GR/NURR1 chimera receptor (NURR1 LBD); test: Relative transactivation of GR/NURR1 chimera receptor versus GR/PPARα chimeric receptor, MMTV-luciferase reporter; details: test analytes at 0, 1, 10, and 30 μM in DMSO; FIG. 7
Description: The relative transactivation of GR/NURR1 chimera receptor in response to a panel of test analytes was determined.
To further verify the selective NURR1 LBD-compound interactions, the same compounds were added to cells that had been co-transfected with the MMTV-luciferase reporter gene expression cassette and a gene expression cassette comprising DNA encoding either the chimeric receptor GR/NURR1 or a chimeric GR/PPARα receptor under conditions similar to those in Example 5.
Expression vector 3GR/PPARα contained the chimeric GR/PPARα receptor in which DNA encoding the DNA binding domain of GR was fused to the ligand binding domain of mouse PPARα was inserted into plasmid pSG5 (See Boie et al., J. Biol. Chem. 268: 5530-[…] (1993)).
Then, aliquots of the transfected cells were treated with test analytes at 0, 1, 10, and 30 μM concentrations in DMSO. The test analytes included Bicalutamide, Lovastatin, ZOCOR, and various SARM compounds. The results are shown in FIG. 7 and are expressed as a relative activity in which the activity at each concentration that was obtained with the extracts from the cells cotransfected with GR/NURR1 was divided by the corresponding activity that was obtained from extracts from the cells cotransfected with GR/PPARα. Other chimeric receptors other than GR/PPARα can be used. […]

Compound | NURR1 agonist activity [1] | luciferase expression from the MMTV-LUC reporter plasmid [1] | relative activity (GR/NURR1 activity divided by GR/LXRβ activity) [2] | relative activity (GR/NURR1 activity divided by GR/PPARα activity) [3]
CCCCCCCCCCCCCCOc1ccc(C(=O)O)o1 [TOFA, 5-(tetradecyloxy)-2-furoic acid] | NURR1 agonists |  |  | 
CCC(C)(C)C(=O)O[C@H]1C[C@@H](C)C=C2C=C[C@H](C)[C@H](CC[C@@H]3C[C@@H](O)CC(=O)O3)[C@H]21 [ZOCOR] | NURR1 agonists | increase in luciferase expression | increase in activity | increase in activity
CC[C@H](C)C(=O)O[C@H]1C[C@@H](C)C=C2C=C[C@H](C)[C@H](CC[C@@H]3C[C@@H](O)CC(=O)O3)[C@H]21 [Lovastatin] | NURR1 agonists | increase in luciferase expression | increase in activity | increase in activity
